In the CheMixHub viscosity set:
Values joined by “and” are separate entries in the source; they are usually repeats but may differ in a detail not shown here. Identical values can stand only once.

Experiment: xn = mol fraction of the nth substance listed

COc1ccccc1N + CCCCOCCO
303.15 K, 101 kPa
Conditions | viscosity [mPa·s]
x1 = 0.115 | 3.21
x1 = 0.2262 | 3.538
x1 = 0.3338 | 3.847
x1 = 0.438 | 4.116
x1 = 0.539 | 4.334
x1 = 0.6369 | 4.494
x1 = 0.7318 | 4.629
x1 = 0.8238 | 4.741
x1 = 0.9132 | 4.839

C1CCCCC1 + CCCCO
Conditions | viscosity [mPa·s]
298.15 K, 101 kPa, x1 = 0.1014 | 2.225
298.15 K, 101 kPa, x1 = 0.1996 | 1.945
298.15 K, 101 kPa, x1 = 0.2962 | 1.699
298.15 K, 101 kPa, x1 = 0.4016 | 1.468
298.15 K, 101 kPa, x1 = 0.5032 | 1.274
298.15 K, 101 kPa, x1 = 0.597 | 1.123
298.15 K, 101 kPa, x1 = 0.6908 | 1.02
298.15 K, 101 kPa, x1 = 0.7923 | 0.9371
298.15 K, 101 kPa, x1 = 0.8856 | 0.8954
298.15 K, 101 kPa, x2 = 0.0216 | 0.876
298.15 K, 101 kPa, x2 = 0.1208 | 0.903
298.15 K, 101 kPa, x2 = 0.155 | 0.921
298.15 K, 101 kPa, x2 = 0.1796 | 0.931
298.15 K, 101 kPa, x2 = 0.3673 | 1.09
298.15 K, 101 kPa, x2 = 0.532 | 1.357
298.15 K, 101 kPa, x2 = 0.7128 | 1.752
298.15 K, 101 kPa, x2 = 0.8385 | 2.07
303.15 K, 101 kPa, x2 = 0.6491 | 1.196
303.15 K, 101.33 kPa, x2 = 0.2111 | 0.9317
303.15 K, 101.33 kPa, x2 = 0.298 | 0.9971
303.15 K, 101.33 kPa, x2 = 0.4038 | 1.095
303.15 K, 101.33 kPa, x2 = 0.489 | 1.187
303.15 K, 101.33 kPa, x2 = 0.8096 | 1.719
303.15 K, 101.33 kPa, x2 = 0.8981 | 1.941
308.15 K, 101 kPa, x2 = 0.0216 | 0.745
308.15 K, 101 kPa, x2 = 0.0714 | 0.754
308.15 K, 101 kPa, x2 = 0.1208 | 0.765
308.15 K, 101 kPa, x2 = 0.155 | 0.779
308.15 K, 101 kPa, x2 = 0.1796 | 0.787
308.15 K, 101 kPa, x2 = 0.3673 | 0.898
308.15 K, 101 kPa, x2 = 0.532 | 1.089
308.15 K, 101 kPa, x2 = 0.6491 | 1.083
308.15 K, 101 kPa, x2 = 0.7128 | 1.387
308.15 K, 101 kPa, x2 = 0.8385 | 1.627
313.15 K, 101 kPa, x1 = 0.1014 | 1.547
313.15 K, 101 kPa, x1 = 0.1996 | 1.363
313.15 K, 101 kPa, x1 = 0.2962 | 1.203
313.15 K, 101 kPa, x1 = 0.4016 | 1.054
313.15 K, 101 kPa, x1 = 0.5032 | 0.934
313.15 K, 101 kPa, x1 = 0.597 | 0.8408
313.15 K, 101 kPa, x1 = 0.6908 | 0.7773
313.15 K, 101 kPa, x1 = 0.7923 | 0.7265
313.15 K, 101 kPa, x1 = 0.8856 | 0.6993
313.15 K, 101 kPa, x2 = 0.6491 | 0.9869
318.15 K, 101 kPa, x2 = 0.0216 | 0.643
318.15 K, 101 kPa, x2 = 0.0714 | 0.645
318.15 K, 101 kPa, x2 = 0.1208 | 0.652
318.15 K, 101 kPa, x2 = 0.155 | 0.664
318.15 K, 101 kPa, x2 = 0.1796 | 0.672
318.15 K, 101 kPa, x2 = 0.3673 | 0.754
318.15 K, 101 kPa, x2 = 0.532 | 0.895
318.15 K, 101 kPa, x2 = 0.7128 | 1.114
318.15 K, 101 kPa, x2 = 0.8385 | 1.298

COC(C)=O + CCCCCCCCCC
298.15 K, 101.3 kPa
Conditions | viscosity [mPa·s]
x1 = 0.0803 | 0.7987
x1 = 0.1876 | 0.7291
x1 = 0.3354 | 0.6485
x1 = 0.4452 | 0.5969
x1 = 0.476 | 0.5809
x1 = 0.5538 | 0.5456
x1 = 0.618 | 0.5186
x1 = 0.7363 | 0.4714
x1 = 0.8315 | 0.4356

c1ccc2ncccc2c1 + COc1ccccc1O
303.15 K, 101 kPa
Conditions | viscosity [mPa·s]
x1 = 0.1 | 5.95
x1 = 0.2 | 8.05
x1 = 0.3 | 10.04
x1 = 0.333 | 10.54
x1 = 0.36 | 10.97
x1 = 0.38 | 11.45
x1 = 0.4 | 11.65
x1 = 0.44 | 11.66
x1 = 0.46 | 11.57
x1 = 0.5 | 10.95
x1 = 0.6 | 8.98
x1 = 0.7 | 6.77
x1 = 0.8 | 4.87
x1 = 0.9 | 3.88

C[C@H](N)C(=O)[O-].[Na+] + O
viscosity [mPa·s], 101 kPa
Conditions | x1 = 0.004484 | x1 = 0.008927 | x1 = 0.01333 | x1 = 0.0177 | x1 = 0.02202 | x1 = 0.02631 | x1 = 0.03478 | x1 = 0.0431 | x1 = 0.05127
293.15 K | 1.118 | 1.239 | 1.371 | 1.526 | 1.683 | 1.856 | 2.272 | 2.747 | 3.244
303.15 K | 0.886 | 0.979 | 1.077 | 1.192 | 1.305 | 1.436 | 1.726 | 2.062 | 2.399
313.15 K | 0.722 | – | 0.871 | 0.96 | 1.046 | 1.144 | 1.372 | 1.605 | 1.851
323.15 K | 0.602 | 0.662 | 0.722 | 0.791 | 0.859 | 0.935 | 1.1 | 1.286 | 1.477

COC(C)=O + CCOC(C)=O
viscosity, 101 kPa
Conditions | 298.15 K | 313.15 K
x1 = 0.0544 | 0.432 mPa·s | 0.372 mPa·s
x1 = 0.0916 | 0.429 mPa·s | 0.37 mPa·s
x1 = 0.2242 | 0.418 mPa·s | 0.361 mPa·s
x1 = 0.3041 | 0.412 mPa·s | 0.357 mPa·s
x1 = 0.3995 | 0.405 mPa·s | 0.351 mPa·s
x1 = 0.5024 | 0.399 mPa·s | 0.346 mPa·s
x1 = 0.5482 | 0.396 mPa·s | 0.344 mPa·s
x1 = 0.6054 | 0.392 mPa·s | 0.341 mPa·s
x1 = 0.7024 | 0.387 mPa·s | 0.337 mPa·s
x1 = 0.8025 | 0.381 mPa·s | 0.333 mPa·s
x1 = 0.9028 | 0.377 mPa·s | 0.33 mPa·s
x1 = 0.9548 | 0.376 mPa·s | 0.33 mPa·s
x2 = 0.07815 | 0.3638 mPa·s | –
x2 = 0.189 | 0.3713 mPa·s | –
x2 = 0.3264 | 0.3801 mPa·s | –
x2 = 0.4453 | 0.3876 mPa·s | –
x2 = 0.5532 | 0.3943 mPa·s | –
x2 = 0.7914 | 0.4098 mPa·s and 0.4098 mPa·s | –
x2 = 0.8752 | 0.4158 mPa·s | –

COc1ccccc1N + CCC(=O)O
viscosity [mPa·s], 100 kPa
Conditions | x1 = 0.1097 | x1 = 0.183 | x1 = 0.2628 | x1 = 0.3502 | x1 = 0.4802 | x1 = 0.5897 | x1 = 0.6693 | x1 = 0.7549 | x1 = 0.8961
303.15 K | 1.402 | 1.697 | 2.017 | 2.367 | 2.884 | 3.317 | 3.631 | 3.967 | 4.518
308.15 K | 1.3 | 1.575 | 1.873 | 2.198 | 2.679 | 3.082 | 3.373 | 3.685 | 4.197
313.15 K | 1.197 | 1.452 | 1.727 | 2.028 | 2.472 | 2.844 | 3.113 | 3.401 | 3.873
318.15 K | 1.097 | 1.333 | 1.587 | 1.865 | 2.275 | 2.619 | 2.867 | 3.132 | 3.567
